Test results as given in patent US7563595B2 (University of South Florida, priority 2002, dated 2009).

Tests used:
[1] = target: α7-2-nAChRs (Rattus norvegicus, UniProt Q05941, INS117GCQLHFDQDLQNMLLREACAQAGEDLRVS); experiment: Two-electrode voltage-clamp of Xenopus oocytes injected with α7-2 cRNA
[2] = system: Type II α7-nAChRs; conditions: cited from earlier work
[3] = target: α7-1-nAChRs (Rattus norvegicus, UniProt Q05941); experiment: Two-electrode voltage-clamp of Xenopus oocytes injected with α7-1 cRNA

With α-bungarotoxin [αBgt] the “block by αBgt” value [1] was greater than 90%, the “effect on transient and sustained components of the ACh-evoked current” value [1] was “abolished” and the “inhibition of peak ACh-evoked current” value [1] was 93±3%. The “reversal of αBgt inhibition after washout” value [1] was “recovered to near control levels”, the “time of toxin washout within which inhibition is reversed” value [1] was no more than 5 min and the “block by αBgt” value [2] was greater than 90%. For the same substance, the “time of toxin washout within which inhibition is reversed” value [2] was no more than 5 min and the “reversal of αBgt block after washout” value [3] was “did not appreciably reverse”.
